Common to all, as to assay type: cell-based, hepatitis C virus
One experiment has as its system HCVcc (FL-J6/JFH++). Description: Drug inhibition of HCVcc RNA replication in infected Huh-7.5 cells (Taqman). Particulars: 48 hour post-infection; Huh-7.5 cells infected with FL-J6/JFH++; HCVcc RNA by Taqman. Here is the method: Parallel cultures of Huh-7.5 cells were infected with FL-J6/JFH++ for 6 hours. Following removal of the inocula, cells were washed with PBS and fed with complete growth medium containing the indicated concentrations of antiviral drugs or a DMSO carrier control. RNAs were extracted after 2 days and the amount of accumulated HCVcc RNA quantitated by Taqman.
A panel of experimental HCV antiviral compounds were examined for their ability to inhibit RNA replication at 48 hour post-infection with HCVcc. One of these compounds, 2′-C-methyladenosine (Merck) is a nucleoside analog that inhibits the HCV RNA polymerase. Three other compounds (PI-1, Vertex; BILN2061, Boerhinger Ingelheim; and SCH6, Schering-Plough) target the serine protease activity of NS3 by competitive binding. […] For the polymerase inhibitor, the higher specific activity is likely due to the fact that we measured the accumulation of nascent RNAs post-infection, whereas replicon-based assays examine the decay of RNA after inhibiting established replication. The reduced activities of the protease inhibitors likely reflect reduced affinities of these drugs, developed to genotype 1 proteases, to bind to the JFH NS3 protein.
In general terms: Real-time PCR tracks product formation cycle by cycle.

In the next experiment the test system is HCVcc. Description: Effect of culture additives on HCVcc production (TCID50 assay). Here is the method: The procedure for immunohistochemical staining for NS5A has been adapted to determine the infectious virus concentration within samples. In one system, virus-containing samples were subjected to serial 10-fold dilutions (typically, 10^−1 to 10^−6) in complete growth medium. Each dilution was then used to infect multiple wells of Huh-7.5 cells seeded in 96-well plates. Following 2 or 3 day incubation, the cells are fixed and subjected to immunohistochemical staining for NS5A expression, as above. The assay plate was then scored for the number of infected wells (i.e. at least one infected cell per well) for each dilution (FIG. 3) and the virus titer was then calculated as the 50% end-point tissue-culture infectious dose per ml (TCID50/ml) according to the statistical method of Reed and Muench (Am. J. Hyg. 27:493-497 (1938)). The sensitivity of this assay was determined by volume of the lowest dilution and the number of replicates tested, and was typically 15.8 TCID50s/ml.
It was of interest to ascertain culturing conditions that increase the titer of infectious HCVcc. A large number of cell culture conditions were tested for their effect on HCVcc production. These included the choice of cell culture media, amount and type of fetal calf serum, as well as the addition of various additive compounds. […] For example, the following titers were recorded: 3.10×10^6 TCID50 (25 mM N-acetylcysteine) vs. 1.06×10^6 TCID50 (5 mM N-acetylcysteine) vs. 2.65×10^5 TCID50 (no N-acetylcysteine). Thus, the use of this compound in HCV-containing cell cultures permits a significant increase in yield of infectious HCVcc. Conditions have also been established for serum-free propagation of Huh-7.5 cells and HCVcc infection and production. These conditions include, but are not limited to, Dulbecco's Modified Eagle's Medium (DMEM)/F12 medium containing 10 μg/ml transferrin, 2 μg/ml insulin, 7.6 μM free fatty acids, 0.3 μM selenium, 0.1 μM hydrocortisone, 0.20% bovine serum albumin, and 20 ng/ml epidermal growth factor.

Another experiment concerns HCVcc (FL-J6/JFH). Put plainly: Blocking of HCVcc infection of naïve Huh-7.5 by soluble recombinant CD81 or CD9 (NS5A immunostaining). Particulars: 10 μg/ml, 1 hour at 37° C., naïve Huh-7.5, day 3. On the procedure:
A) Independent samples of FL-J6/JFH++ (3.16×10^4 TCID50/ml) were mixed with the indicated amounts of recombinant human monoclonal antibodies (IgGl) against HCV E2 (open circles) or dengue-3 E proteins (filled triangle). Following a 1 hour incubation at 37° C., the virus titers of each sample were determined as described for FIG. 3. Shown are the average±s.d. of three independent samples. The amount of input virus is indicated by the dashed line. B) Samples of FL-J6/JFH were incubated for 1 hour at 37° C. with 10 μg/ml of soluble recombinant CD81 or CD9 and used to infect naïve Huh-7.5. Infections were monitored at day 3 by immunostaining as described in FIG. 2B. C). FL-J6/JFH was used to infect standard HepG2 cells or HepG2 cells engineered to express human CD81. Infections were monitored as described in FIG. 2B.
To further examine the role of E2 in HCVcc entry, virus was preincubated with a recombinant form of the large extracellular loop from CD81, which binds E2 and acts as a receptor for HCV. […] In addition, the role of CD81 in mediating HCVcc entry was examined by infecting HepG2 cells, which lack CD81 expression, or HepG2 cells that have been engineered to express human CD81.

For `COc1ccc2c(O[C@@H]3C[C@H]4C(=O)N[C@]5(C(=O)O)C[C@H]5/C=C\CCCCC[C@H](NC(=O)OC5CCCC5)C(=O)N4C3)cc(-c3csc(NC(C)C)n3)nc2c1` [BILN2061], in the experiment with HCVcc (FL-J6/JFH++), the “ability to inhibit RNA replication post-infection with HCVcc” value is on record as “inhibited HCVcc replication”.

Consider `C[C@@]1(O)[C@H](O)[C@@H](CO)O[C@H]1n1cnc2c(N)ncnc21` [2′-C-methyladenosine], for which the “ability to inhibit RNA replication post-infection with HCVcc” value in the experiment on HCVcc (FL-J6/JFH++) was “inhibited HCVcc replication”.

For the molecule `CC(=O)N[C@@H](CS)C(=O)O` [N-acetylcysteine], the HCVcc titer in the experiment on HCVcc (5 mM N-acetylcysteine in culture) is 1.06×10^6 TCID50; in the experiment with HCVcc (25 mM N-acetylcysteine in culture) it was 3.10×10^6 TCID50. The “levels of HCVcc as determined by TCID50 assay” value in the experiment with HCVcc (additive in cell culture) was “consistently gave higher levels of HCVcc”.

B1: large extracellular loop of CD9: large extracellular loop of CD9, a related tetraspanin (control) (protein)
chain: SHKDEVIKEVQEFYKDTYNKLKTKDEPQRETLKAIHYALNCCGLAGGVEQFISDICPKKDVLETFTVKSCPDAIKEVFDNKFHI
As for B1, the “HCVcc infection after preincubation of virus with recombinant protein” value in the experiment on HCVcc (FL-J6/JFH) is recorded as “did not”.

B2: recombinant form of the large extracellular loop from CD81: recombinant large extracellular loop of CD81, which binds E2 and acts as a receptor for HCV (protein)
chain: FVNKDQIAKDVKQFYDQALQQAVVDDDANNAKAVVKTFHETLDCCGSSTLTALTTSVLKNNLCPSGSNIISNLFKEDCHQKIDDLFSGK
Take B2: in the experiment with HCVcc (FL-J6/JFH), the “HCVcc infection after preincubation of virus with recombinant protein” value was “blocked HCVcc infection”.

These data come from patent US7674612B2, “Infectious, chimeric hepatitis C virus, methods of producing the same and methods of use thereof” (The Rockefeller University, priority 2005, dated 2010).
